We go through eight molecules from patent US20160251402A1, “MICROPEPTIDES AND USE OF SAME FOR MODULATING GENE EXPRESSION” (UNIVERSITE PAUL SABATIER TOULOUSE III, priority 2013, published 2016).

Test [1] concerns Arabidopsis thaliana root growth. Put plainly: Root growth in Arabidopsis thaliana. The class given is in vivo. Conditions: plant treated with AtmiPEP165a vs control plant of the same age.
Test [2] relates to AtmiR165a. Put plainly: Accumulation of AtmiR165a in roots of A. thaliana (relative expression). The class given is in vivo, Arabidopsis thaliana. The conditions noted are these: roots treated with 0.01, 0.1, 1 or 10 μM peptide vs water.
The subject of test [3] is REVOLUTA: REV. As to the kind of experiment: Expression of REVOLUTA (REV) in roots of A. thaliana. Type of test: in vivo, Arabidopsis thaliana. The conditions noted are these: roots treated with 0.01, 0.1, 1 or 10 μM peptide vs water.
Test [4] has as its system AtmiR165a. Put plainly: Accumulation of AtmiR165a in the model plant of tobacco. The class given is in vivo, Nicotiana benthamiana. The conditions noted are these: tobacco expressing AtmiR165a, overexpression of AtmiORF165a. The procedure: (§1) At present, AtmiPEP165a and AtmiPEP319a2, identified in Arabidopsis thaliana, have already been characterized.
(§2) The total RNA was extracted from roots of M. truncatula or from tobacco leaves using the extraction kit RNeasy Plant Mini Kit (Qiagen). The reverse transcription was performed using the reverse transcriptase SuperScript II (Invitrogen) starting from 500 ng of total RNA. Three repetitions (n=3) were carried out, each with two technical repetitions. Each experiment was repeated from two to three times. The amplifications by qPCR were carried out using a LightCycler 480 System thermocycler (Roche Diagnostics) by the method described in Lauressergues et al. (Plant J., 72(3): 512-22, 2012).
(§3) For the miPEPs 165a and 319a, the corresponding miORFs were cloned into pBIN19 by the method described in Combier et al. (Genes & Dev, 22: 1549-1559, 2008).
(§4) The composite plants having roots transformed with Agrobacterium rhizogenes were obtained by the method described in Boisson-Dernier et al. (Mol Plant-Microbe Interact, 18: 1269-1276, 2005). The transformed roots were verified and selected by observations of DsRED with a binocular fluorescence magnifier. The control roots correspond to roots transformed with A. rhizogenes not containing the pPEX-DsRED vector. Transformation of the tobacco leaves was carried out by the method described in Combier et al. (Genes & Dev, 22: 1549-1559, 2008).

Test [5] relates to PHABOLUSA: PHB. As to the kind of experiment: Expression of PHABOLUSA (PHB) in roots of A. thaliana. The class given is in vivo, Arabidopsis thaliana. Conditions: roots treated with 0.01, 0.1, 1 or 10 μM peptide vs water.
Test [6] relates to PHAVOLUTA: PHV. As to the kind of experiment: Expression of PHAVOLUTA (PHV) in roots of A. thaliana. Type of test: in vivo, Arabidopsis thaliana. Conditions: roots treated with 0.01, 0.1, 1 or 10 μM peptide vs water.
Test [7] deals with pri-miR165a. Put plainly: Relative expression of pri-miR165a in A. thaliana (Col-0 and nrpb2-3). The class given is in vivo, Arabidopsis thaliana.
From the text: Moreover, to determinate the mode of action of miPEPs regarding the accumulation of their own miRs, the expression of pri-miR165a has been analysed in wildtype plants and in plants that have been transformed to overexpress miPEP165a (FIG. 35).
Moreover, the expression of pri-miR165a has been analysed in wildtype plants (Col-0 plants) and in mutated plants having a low allele of the second large subunit of RNA polymerase II (nrpb2-3 plants). […] It appears that the miPEP operates as a transcription regulator.
as §2

The test system of test [8] is AtmiR165a. Put plainly: Northern blot of AtmiR165a in A. thaliana roots. The conditions noted are these: 0.1 μM synthetic peptide dissolved in water vs water; U6 loading control. Type of test: in vivo, Arabidopsis thaliana.
For test [9], the system named is pri-miR165a. Put plainly: RNA stability of pri-miR165a in the presence of cordycepin. The class given is in vivo, Arabidopsis thaliana. Conditions: in the presence of cordycepin (inhibitor of RNA synthesis), peptide at 10 μM. As for the experimental part: For each condition, two week old plants that have been cultivated vertically on solid MS medium have been transferred in 6-well plates containing 1 ml of liquid MS medium. […] Each indivual experiment has been made 3 times.

Test [10] relates to MtmiR171e. As to the kind of experiment: Relative expression of MtmiR171e in M. truncatula. The conditions noted are these: plant in which MtmiPEP171e is overexpressed vs control plant. Type of test: in vivo, Medicago truncatula. The procedure: as §2, §4
In test [11] the test system is AtmiR160b. Put plainly: Relative expression of AtmiR160b in A. thaliana. The class given is in vivo, Arabidopsis thaliana. Conditions: plant in which AtmiPEP160b1 is overexpressed vs control plant.
Test [12] concerns MtmiR169d. Put plainly: Relative expression of MtmiR169d in M. truncatula. Type of test: in vivo, Medicago truncatula. The procedure:
as §2

In test [13] the test system is AtmiR319a. Put plainly: Accumulation of AtmiR319a in the model plant of tobacco. Type of test: in vivo, Nicotiana benthamiana. Conditions: tobacco expressing AtmiR319a, overexpression of AtmiORF319a. As for the experimental part: as §1, §2, §3, §4
The test system of test [14] is AtmiR164a. As to the kind of experiment: Relative expression of AtmiR164a in A. thaliana (qRT-PCR). Conditions: plant watered once a day with peptide at 0.1 μM vs control plant. The class given is in vivo, Arabidopsis thaliana. (In general: Real-time PCR tracks product formation cycle by cycle.)
Test [15] relates to AtmiR164a. Put plainly: Northern blot of AtmiR164a in A. thaliana roots. The class given is in vivo, Arabidopsis thaliana. Conditions: 0.1 μM synthetic peptide dissolved in water vs water; U6 loading control. The procedure: Northern blot analysis was carried out according to the protocol described in Lauressergues et al. Plant J., 72(3): 512-22, 2012.
The biological samples were homogenized in a buffer containing 0.1 M of NaCl, 2% of SDS, 50 mM of Tris-HCl (pH 9), 10 mM of EDTA (pH 8) and 20 mM of mercaptoethanol, and the RNA was extracted twice with a phenol/chloroform mixture and was precipitated with ethanol.
The RNA was loaded on PAGE 15% gel and transferred to a nylon membrane (HybondNX, Amersham). RNA was hybridized with a radioactive oligonucleotide probe labelled at its end, in order to detect the RNA U6 or for miR164a.
The hybridizations were carried out at 55° C. The hybridization signals were quantified using a phosphorimager (Fuji) and normalized with the signal of the specific probe of RNA U6.

The test system of test [16] is Arabidopsis thaliana. As to the kind of experiment: Plant growth of Arabidopsis thaliana after 3 weeks of watering. The class given is in vivo. Conditions: watered with 0.1 μM of synthetic peptide, 3 weeks of growth, vs water.
Test [17] relates to AtmiR319a. As to the kind of experiment: Relative expression of AtmiR319a in A. thaliana (qRT-PCR). The conditions noted are these: plant in which AtmiPEP319a1 is overexpressed vs control plant. Type of test: in vivo, Arabidopsis thaliana.
In test [18] the test system is DmmiR8. Put plainly: Relative expression of Pre-miR8 in transfected Drosophila melanogaster cells. The class given is cell-based. As for the experimental part: S2 cells are cultured in a T75 flask in 12 mL of Schneider's medium (GIBCO), containing 1% of penicillin 100 U/mL and […] (Sigma) and 10% of decomplemented foetal calf serum (30 min at 56° C.). The transient transfections are carried out using the FuGENE® HD transfection kit (Roche), according to the recommendations. Conventionally, 1.5 million S2 cells, previously seeded in 6-well plates (3 ml of medium per well), are transfected with 250 ng of total plasmid DNA. The DNA is brought into contact with the Fugene (3 μl) in 100 μl of OPTIMEM (GIBCO). After 20 minutes, the transfection reagent formed is brought into contact with the cells in the culture medium. The RNA of the cells is extracted 66 h after transfection.

Entries after “also recorded” stand apart in the source; their conditions may differ.

Consider “MRVKLFQLRGMLSGSRIL (listed as Arabidopsis thaliana) [AtmiPEP165a]”, for which the root growth phenotype result in test [1] was “greatly accelerated root growth”. Besides, the figures for the “relative expression of AtmiR165a” value in test [2] and in [2] (listed as miPEP165a) were “dose-dependent effect of the accumulation of AtmiR165a” and “dose-dependent effect on the accumulation of miR165a”, respectively. For the same molecule, the “relative expression of REV” value in test [3] was “negative regulation of its target genes”. Moreover, the “accumulation of AtmiR165a” value in test [4] is “increase in the accumulation”. Moreover, in test [5], the “relative expression of PHB” value was “negative regulation of its target genes”. In addition, the “relative expression of PHV” value in test [6] is reported as “negative regulation of its target genes”. In addition, the “relative expression of pri-miR165a” value in test [7] (nrpb2-3 mutated plants vs wildtype (Col-0), water or peptide at 10 μM) is recorded as “not capable of accumulating AtmiR165a in response to AtmiPEP165a”; in [7] (nrpb2-3 mutated plants vs wildtype (Col-0), water or peptide at 10 μM, listed as miPEP165a) it was “mutated plants do not show an increase in the accumulation of pri-miR165 in response to miPEP165a”; in test [7] (roots watered once a day with peptide at 10 μM vs control roots), “increase in the relative expression of AtmiR165a”. In addition, the “expression of pri-miR165a” value in test [7] (plants that overexpress miPEP165a vs wildtype plants) is on record as “enhanced”. Also, the “accumulation of AtmiR165a (Northern blot)” value in [8] is reported as “increase in the accumulation of miR165a”. In addition, the “stability of pri-miR165a” value in [9] was “does not induce a better stability of pri-miR165a”; in test [9] (listed as miPEP165a), “does not operate as a RNA stabilizer, but rather as a transcription activator of pri-miR165a”.

Take “MMVFGKPKKAMLVRFNPKTDLHV (listed as Medicago truncatula) [MtmiPEP171e]”: the “relative expression of MtmiR171e” value in test [10] was “increase in the relative expression of MtmiR171e; also recorded: induces an accumulation of MtmiR171e”.

“MFSPQ (listed as Arabidopsis thaliana) [AtmiPEP160b1]”: the “relative expression of AtmiR160b” value in [11] is on record as “increase in the relative expression of AtmiR160b; also recorded: induces an accumulation of AtmiR160b”.

Consider “MVKESFMERLKVR (listed as Medicago truncatula) [MtmiPEP169d]”, for which the “accumulation of MtmiR169d” value in [12] (overexpression of the miPEP in M. truncatula (as worded in Example 1B)) is “induces an accumulation of MtmiR169d”. In addition, the “relative expression of MtmiR169d” value in test [12] (plant watered once a day with peptide at 0.1 μM vs control plant) is on record as “increase in the relative expression of MtmiR169d”.

Regarding “MFQTLYLFIYIHTNILLLS (listed as Arabidopsis thaliana) [AtmiPEP319a2]”, in test [13], the “accumulation of AtmiR319a” value is “increase in the accumulation”.

Consider “MPSWHGMVLLPYVKHTHASTHTHTHNIYGCACELVFH [AtmiPEP164a1]”, for which the “relative expression of AtmiR164a” value in [14] is “increase in the relative expression of AtmiR164a”. Besides, the “accumulation of AtmiR164a (Northern blot)” value in test [15] is on record as “increase in the accumulation of miR164a”. Besides, in test [16], the plant growth result was “increases plant growth significantly”.

Turning to “MNIHTYHHLLFPSLVFHQSSDVPNALSLHIHTYEYIIVVIDPFRITLAFR [AtmiPEP319a1]”, the “relative expression of AtmiR319a” value in test [17] was “increase in the accumulation of AtmiR319a; also recorded: increase in the relative expression of AtmiR319a; also recorded: increase in the accumulation of miR319a”. In addition, the plant growth entry in test [16] was “increases plant growth significantly”.

B1: MEPGFVFVLFPTHLSTQHTQREKSILVMGLNLQSAKQSDKQNSKERKKNTQINSQRIPYRQGGQCSKVLSP (peptide)
chain: MEPGFVFVLFPTHLSTQHTQREKSILVMGLNLQSAKQSDKQNSKERKKNTQINSQRIPYRQGGQCSKVLSP
modifications: Drosophila melanogaster
On to B1, for which the “relative expression of Pre-miR8” value in test [18] (cells overexpressing DmmiPEP8 vs miPEP8 with mutated start codons) and in test [18] (cells overexpressing wild-type DmmiR8 vs DmmiR8 with mutated miPEP8 start codons) was “increases the expression of DmmiR8” throughout.
